Results as given in patent US9688683B2, “Substituted condensed pyrimidine compounds” (GRÜNENTHAL GMBH, priority 2013, dated 2017).

Molecular target: human PDE4B1 (Homo sapiens (Human), UniProt Q07343)
Assay: cAMP HTRF assay to determine the activity of hPDE4B1
Format: biochemical
Conditions: human recombinant PDE4B1 expressed in Sf9 cells; cAMP 40 nM; N=1-2, n=2; read-out: PDE4B IC50-value
Method: A: Determination of the PDE4B IC50 Values with a cAMP HRTF® Assay to Determine the Activity of hPDE4B1
The inhibiting effect of the compounds on the enzyme activity of human PDE4B1 is measured by the quantification of 5′-AMP, which is formed from 3′,5′-adenosine monophosphate (cAMP). Human recombinant enzyme, expressed in Sf9 cells, and the HTRF (homogeneous time-resolved fluorescence) detection method are used in the assay.
The test compound or water (control) is mixed with the human recombinant PDE4B1 enzyme (4.8 U) in a buffer consisting of 44.4 mM tris-HCl, 5.28 mM MgCl2, 2.64 mM DTT and 0.044% Tween 20 (pH 7.8). After adding the cAMP enzyme substrate (final concentration 40 nM) the mixture is incubated for 30 minutes at room temperature. Then a fluorescence acceptor (Dye2 marked with cAMP), a fluorescence donor (anti-cAMP antibody marked with a europium cryptate) and the non-specific phosphodiesterase inhibitor IBMX (3-isobutyl-1-methylxanthine; final concentration 1 mM) are added. After 60 minutes the fluorescence transfer, which correlates with the amount of remaining cAMP, is measured with a microplate reader (Rubystar, BMG) at λex=337 nm, λem=620 nm and λem=665 nm. The enzyme activity is calculated from the quotient formed from the measured signal at 665 nm and that at 620 nm. The result is expressed as the percentage inhibition of enzyme activity of the control (without PDE4 inhibitor) (literature: N. Saldou et al., Comparison of recombinant human PDE4 isoforms: interaction with substrate and inhibitors, Cell. Signal. Vol. 10, No. 6, 427-440, 1998). The enzyme is omitted for measurement of the basal control.

human PDE4B1, sequence (Q07343 whole entry): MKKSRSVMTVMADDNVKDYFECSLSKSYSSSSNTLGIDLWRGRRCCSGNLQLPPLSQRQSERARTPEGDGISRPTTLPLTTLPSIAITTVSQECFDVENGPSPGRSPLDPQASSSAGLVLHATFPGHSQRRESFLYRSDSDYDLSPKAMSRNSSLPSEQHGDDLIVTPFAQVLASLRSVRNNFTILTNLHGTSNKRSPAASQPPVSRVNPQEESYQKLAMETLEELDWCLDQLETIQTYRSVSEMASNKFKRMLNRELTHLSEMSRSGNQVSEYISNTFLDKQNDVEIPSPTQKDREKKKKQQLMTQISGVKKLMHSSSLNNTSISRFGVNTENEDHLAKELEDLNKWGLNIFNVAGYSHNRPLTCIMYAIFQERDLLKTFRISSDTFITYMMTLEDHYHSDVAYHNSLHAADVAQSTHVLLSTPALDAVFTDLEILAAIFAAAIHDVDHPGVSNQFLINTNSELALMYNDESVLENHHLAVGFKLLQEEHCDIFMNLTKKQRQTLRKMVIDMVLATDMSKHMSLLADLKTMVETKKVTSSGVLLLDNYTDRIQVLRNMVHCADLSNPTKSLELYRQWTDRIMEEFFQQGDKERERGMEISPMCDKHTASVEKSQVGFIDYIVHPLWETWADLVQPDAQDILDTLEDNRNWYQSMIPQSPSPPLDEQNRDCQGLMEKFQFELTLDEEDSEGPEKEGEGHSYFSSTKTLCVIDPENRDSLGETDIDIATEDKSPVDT

`COc1ccc(-c2nc(C)c3ccn(-c4ccc(C(=O)O)cc4)c3n2)cc1F` [Compound 1, 4-(2-(3-Fluoro-4-methoxyphenyl)-4-methyl-7H-pyrrolo[2,3-d]pyrimidin-7-yl)benzoic acid] and `COc1ccc(-c2nc(C)c3ccn(-c4ccc(C(=O)O)cc4)c3n2)cc1Cl` [Compound 14, 4-(2-(3-Chloro-4-methoxyphenyl)-4-methyl-7H-pyrrolo[2,3-d]pyrimidin-7-yl)benzoic acid] cannot be ordered by IC50: < 1000 nM for the first, < 1000 nM for the second.

`CCc1nc(-c2ccc(OC)c(F)c2)nc2c1ccn2-c1ccc(C(=O)O)cc1` [Compound 2, 4-(4-ethyl-2-(3-fluoro-4-methoxyphenyl)-7H-pyrrolo[2,3-d]pyrimidin-7-yl)benzoic acid] and `CCc1nc(-c2ccc(OC)c(F)c2)nc2c1ccn2-c1ccc(CC(=O)O)cc1` [Compound 4, 2,2,2-Trifluoroacetic acid compound with 2-(4-(4-ethyl-2-(3-fluoro-4-methoxyphenyl)-7H-pyrrolo[2,3-d]pyrimidin-7-yl)phenyl)acetic acid (1:1)] cannot be ordered by IC50: < 1000 nM for the first, < 1000 nM for the second.

First: CCc1nc(-c2ccc(OC)c(F)c2)nc2c1CCN2c1ccc(C(=O)O)cc1 [Compound 6, 4-(4-ethyl-2-(3-fluoro-4-methoxyphenyl)-5H-pyrrolo[2,3-d]pyrimidin-7(6H)-yl)benzoic acid]
Second: CCc1nc(-c2ccc(OC)c(F)c2)nc2c1CCN2c1ccc(CC(=O)O)cc1 [Compound 8, 2-(4-(4-Ethyl-2-(3-fluoro-4-methoxyphenyl)-5H-pyrrolo[2,3-d]pyrimidin-7(6H)-yl)phenyl)-acetic acid]
The IC50 of the first is higher: 1000 to 10000 nM for the first, < 1000 nM for the second. The second is the more potent here.

`COc1ccc(-c2nc(C)c3c(n2)N(c2ccc(CC(=O)O)cc2)CC3)cc1F` [Compound 7, 2-(4-(2-(3-Fluoro-4-methoxyphenyl)-4-methyl-5H-pyrrolo[2,3-d]pyrimidin-7(6H)-yl)phenyl)acetic acid] and `COc1ccc(-c2nc(C)c3c(n2)N(c2ccc(CC(=O)O)cc2)CC3)cc1Cl` [Compound 20, 2-(4-(2-(3-Chloro-4-methoxyphenyl)-4-methyl-5H-pyrrolo[2,3-d]pyrimidin-7(6H)-yl)phenyl)acetic acid] cannot be ordered by IC50: < 1000 nM for the first, < 1000 nM for the second.

First: CCc1nc(-c2ccc(OC)c(F)c2)nc2c1CCN2c1cccc(OCC(=O)N(C)C)c1 [Compound 9, 2-(3-(4-Ethyl-2-(3-fluoro-4-methoxyphenyl)-5H-pyrrolo[2,3-d]pyrimidin-7(6H)-yl)phenoxy)-N,N-dimethylacetamide]
Second: CCc1nc(-c2ccc(OC)c(F)c2)nc2c1CCN2c1cccc(OCC(=O)N(C)CC2CC2)c1 [Compound 51, N-(cyclopropylmethyl)-2-(3-(4-ethyl-2-(3-fluoro-4-methoxyphenyl)-5H-pyrrolo[2,3-d]pyrimidin-7(6H)-yl)phenoxy)-N-methylacetamide]
The IC50 of the first is lower: < 1000 nM for the first, 1000 to 10000 nM for the second.

`COc1ccc(-c2nc(C)c3c(n2)N(c2ccc(CC(=O)O)cc2)CC3C)cc1F` (stereo not shown) [Compound 12, 2,2,2-Trifluoroacetic acid compound with 2-(4-(2-(3-fluoro-4-methoxyphenyl)-4,5-dimethyl-5H-pyrrolo[2,3-d]pyrimidin-7(6H)-yl)phenyl)acetic acid (1:1)] and `COc1ccc(-c2nc(C)c3c(n2)N(c2ccc(CC(=O)O)cc2)CC3C)cc1Cl` (stereo not shown) [Compound 24, 2,2,2-Trifluoroacetic acid compound with 2-(4-(2-(3-chloro-4-methoxyphenyl)-4,5-dimethyl-5H-pyrrolo[2,3-d]pyrimidin-7(6H)-yl)phenyl)acetic acid (1:1)] cannot be ordered by IC50: < 1000 nM for the first, < 1000 nM for the second.

Compared with `COc1ccc(-c2nc(C)c3ccn(-c4ccc(CC(=O)O)cc4)c3n2)cc1Cl` [Compound 16, 2-(4-(2-(3-Chloro-4-methoxyphenyl)-4-methyl-7H-pyrrolo[2,3-d]pyrimidin-7-yl)phenyl)acetic acid], `COc1ccc(-c2nc(SC)c3ccn(-c4ccc(CC(=O)O)cc4)c3n2)cc1F` [Compound 69, 2-(4-(2-(3-fluoro-4-methoxyphenyl)-4-(methylthio)-7H-pyrrolo[2,3-d]pyrimidin-7-yl)phenyl)acetic acid] is higher in IC50: < 1000 nM for the first, 1000 to 10000 nM for the second. The first is the more potent here.

`CCc1nc(-c2ccc(OC)c(Cl)c2)nc2c1CCN2c1ccc(CC(=O)O)cc1` [Compound 21, 2-(4-(2-(3-Chloro-4-methoxyphenyl)-4-ethyl-5H-pyrrolo[2,3-d]pyrimidin-7(6H)-yl)phenyl)acetic acid] and `Cc1nc(-c2ccc(Cl)s2)nc2c1CCN2c1ccc(CC(=O)O)cc1` [Compound 39, 2,2,2-Trifluoroacetic acid compound with 2-(4-(2-(5-chlorothiophen-2-yl)-4-methyl-5H-pyrrolo[2,3-d]pyrimidin-7(6H)-yl)phenyl)acetic acid (1:1)] cannot be ordered by IC50: < 1000 nM for the first, < 1000 nM for the second.

`Cc1nc(-c2ccc(F)c(F)c2)nc2c1ccn2-c1ccc(C(=O)O)cc1` [Compound 26, 4-(2-(3,4-Difluorophenyl)-4-methyl-7H-pyrrolo[2,3-d]pyrimidin-7-yl)benzoic acid] and `Cc1nc(-c2ccc(Cl)s2)nc2c1ccn2-c1ccc(C(=O)O)cc1` [Compound 38, 4-(2-(5-Chlorothiophen-2-yl)-4-methyl-7H-pyrrolo[2,3-d]pyrimidin-7-yl)benzoic acid] cannot be ordered by IC50: < 1000 nM for the first, < 1000 nM for the second.

`CCc1nc(-c2ccc(Cl)s2)nc2c1CCN2c1cccc(OCC(=O)N(C)C)c1` [Compound 40, 2-(3-(2-(5-chlorothiophen-2-yl)-4-ethyl-5H-pyrrolo[2,3-d]pyrimidin-7(6H)-yl)phenoxy)-N,N-dimethylacetamide] and `CCc1nc(-c2ccc(Cl)s2)nc2c1CCN2c1ccc(C(=O)O)cc1` [Compound 46, 4-(2-(5-chlorothiophen-2-yl)-4-ethyl-5H-pyrrolo[2,3-d]pyrimidin-7(6H)-yl)benzoic acid] cannot be ordered by IC50: < 1000 nM for the first, < 1000 nM for the second.

`COc1ccc(-c2nc(OC)c3ccn(-c4ccc(C(=O)O)cc4)c3n2)cc1Cl` [Compound 45, 4-(2-(3-chloro-4-methoxyphenyl)-4-methoxy-7H-pyrrolo[2,3-d]pyrimidin-7-yl)benzoic acid] and `COc1ccc(-c2nc(C3CC3)c3ccn(-c4cccc(OCC(=O)N(C)C)c4)c3n2)cc1F` [Compound 76, 2-(3-(4-cyclopropyl-2-(3-fluoro-4-methoxyphenyl)-7H-pyrrolo[2,3-d]pyrimidin-7-yl)phenoxy)-N,N-dimethylacetamide] fall in the same range of IC50: 1000 to 10000 nM for the first, 1000 to 10000 nM for the second.

`CCc1nc(-c2ccc(OC)c(F)c2)nc2c1CCN2c1cccc(OCC(=O)NC2COC2)c1` [Compound 47, 2-(3-(4-ethyl-2-(3-fluoro-4-methoxyphenyl)-5H-pyrrolo[2,3-d]pyrimidin-7(6H)-yl)phenoxy)-N-(oxetan-3-yl)acetamide] and `COc1ccc(-c2nc(C)c3c(n2)N(c2cccc(OCC(=O)N(C)C)c2)CC32CC2)cc1F` [Compound 79, 2-(3-(2′-(3-fluoro-4-methoxyphenyl)-4′-methylspiro-[cyclopropane-1,5′-pyrrolo[2,3-d]pyrimidin]-7′(6′H)-yl)phenoxy)-N,N-dimethylacetamide] fall in the same range of IC50: 1000 to 10000 nM for the first, 1000 to 10000 nM for the second.

First: COc1ccc(-c2nc(S(C)(=O)=O)c3ccn(-c4cccc(OCC(=O)N(C)C)c4)c3n2)cc1F [Compound 50, 2-(3-(2-(3-fluoro-4-methoxyphenyl)-4-(methylsulfonyl)-7H-pyrrolo[2,3-d]pyrimidin-7-yl)phenoxy)-N,N-dimethylacetamide]
Second: CCc1nc(-c2cccc(S(C)(=O)=O)c2)nc2c1ccn2-c1cccc(OCC(=O)N(C)C)c1 [Compound 81, 2-(3-(4-ethyl-2-(3-(methylsulfonyl)phenyl)-7H-pyrrolo[2,3-d]pyrimidin-7-yl)phenoxy)-N,N-dimethylacetamide]
The IC50 of the first is higher: 1000 to 10000 nM for the first, < 1000 nM for the second. The second is the more potent here.

First: CCc1nc(-c2ccc(OC)nc2)nc2c1ccn2-c1cccc(OCC(=O)N(C)C)c1 [Compound 77, 2-(3-(4-ethyl-2-(6-methoxypyridin-3-yl)-7H-pyrrolo[2,3-d]pyrimidin-7-yl)phenoxy)-N,N-dimethylacetamide]
Second: CCc1nc(-c2cccnc2)nc2c1ccn2-c1cccc(OCC(=O)N(C)C)c1 [Compound 83, 2-(3-(4-ethyl-2-(pyridin-3-yl)-7H-pyrrolo[2,3-d]pyrimidin-7-yl)phenoxy)-N,N-dimethylacetamide]
The IC50 of the first is higher: 1000 to 10000 nM for the first, < 1000 nM for the second.

First: COc1ccc(-c2ncc3c(n2)N(c2cccc(OCC(=O)N(C)C)c2)CC32CC2)cc1F [Compound 78, 2-(3-(2′-(3-fluoro-4-methoxyphenyl)spiro[cyclopropane-1,5′-pyrrolo[2,3-d]pyrimidin]-7′(6′H)-yl)phenoxy)-N,N-dimethylacetamide]
Second: CCc1nc(-c2cccnc2OC)nc2c1ccn2-c1cccc(OCC(=O)N(C)C)c1 [Compound 80, 2-(3-(4-ethyl-2-(2-methoxypyridin-3-yl)-7H-pyrrolo[2,3-d]pyrimidin-7-yl)phenoxy)-N,N-dimethylacetamide]
The IC50 of the first is higher: 1000 to 10000 nM for the first, < 1000 nM for the second.

`CCc1nc(-c2ccncc2)nc2c1ccn2-c1cccc(OCC(=O)N(C)C)c1` [Compound 82, 2-(3-(4-ethyl-2-(pyridin-4-yl)-7H-pyrrolo[2,3-d]pyrimidin-7-yl)phenoxy)-N,N-dimethylacetamide] was tested, and the IC50 was < 1000 nM.
